Laboratory results reported in US11510962B2, “Manufacture of degarelix” (Ferring B.V., priority 2012, dated 2022).
Square brackets hold non-standard residues; d marks the D form. Peptide text beside a SMILES is read from it. * marks the point of attachment. dPhe(4-NHCONH2) = NC(=O)Nc1ccc(C[C@@H](N)C(=O)O)cc1; Dihydroorotyl(S) = O=C1C[C@@H](C(=O)*)NC(=O)N1; dPhe(4-Cl) = N[C@H](Cc1ccc(Cl)cc1)C(=O)O; Phe(4-NH2) = Nc1ccc(C[C@H](N)C(=O)O)cc1; d2Nal = N[C@H](Cc1ccc2ccccc2c1)C(=O)O; Lys(iPr) = CC(C)NCCCC[C@H](N)C(=O)O; d3Pal = N[C@H](Cc1cccnc1)C(=O)O

What was measured:
[1] = Reconstitution of degarelix vials with WFI/surfactant solution: OD (absorbance) at 350 nm; format: physicochemical; settings: vials reconstituted to 60 mg/ml degarelix, surfactant 1 mg/ml (0.1%) in WFI, 30 min, 60 min, 120 min, 24 hours
Protocol: Procedure: • Degarelix batch reconstituted using WFI (as control) and using WFI containing the surfactants. The vials are reconstituted to 60 mg/ml degarelix.

[2] = In-vitro release profile (IVD assay) of degarelix vials reconstituted with WFI+Tween 20; format: physicochemical; settings: 40 mg/ml degarelix; Tween 20 at 1, 0.5, 0.25 mg/ml; control WFI
Protocol: Tween 20 concentrations tested:
1 mg/ml; 0.5 mg/ml; 0.25 mg/ml;

[3] = De-aggregation experiments with acetic acid: viscosity of degarelix stock solution; format: physicochemical
Protocol: Determination of the viscosity of the drug substance and drug product solution is based on the current edition of Ph. Eur. and USP procedure using a rotating viscometer equipped with a cone-plate measuring system with D=60 mm and 1°. The shear rate is increased from 0 to 500 s in 20 steps, using a controlled rate (CR) rotation step program at a constant temperature of 20±0.2° C., making certain that the system reaches equilibrium before the viscosity is recorded at a shear rate of 500 s^−1. During the de-aggregation studies the temperature was set to 5, 20, 25, or 35° C. The concentration of degarelix drug substance was 5, 15, 25, or 35 mg/ml. The concentration of acetic acid is 13, 15, 18, 20, 22, 26, 30, 35 or 40%. Viscosity: Take out 1.2 ml at T=1, 60, 120, and 240 min. De-aggregation Experiment Protocol, total volume 20 or 69 ml: • 1. Weigh the required amount of stock solution into a beaker. Equilibrate to the desired temperature • 2. Weigh the required amount of acetic acid (100%) into a beaker • 3. Mix the acetic acid (100%) with 3 or 10 ml of milli-Q water and equilibrate to the desired temperature • 4. Mix the degarelix stock solution with the acetic acid/milli-Q water solution • 5. Fill milli-Q water up to 20 or 69 ml • 6. Mix thoroughly • 7. Take samples for viscosity and optical density as described above. Note the appearance of the solution during the experiment

[4] = De-aggregation experiments with acetic acid: final optical density; format: physicochemical
Protocol: During the de-aggregation studies the temperature was set to 5, 20, 25, or 35° C. The concentration of degarelix drug substance was 5, 15, 25, or 35 mg/ml. The concentration of acetic acid is 13, 15, 18, 20, 22, 26, 30, 35 or 40%. Optical Density (OD): A sample (1 ml) should be taken at the end of each experiment for measurement of the final optical density. De-aggregation Experiment Protocol, total volume 20 or 69 ml: • 1. Weigh the required amount of stock solution into a beaker. Equilibrate to the desired temperature • 2. Weigh the required amount of acetic acid (100%) into a beaker • 3. Mix the acetic acid (100%) with 3 or 10 ml of milli-Q water and equilibrate to the desired temperature • 4. Mix the degarelix stock solution with the acetic acid/milli-Q water solution • 5. Fill milli-Q water up to 20 or 69 ml • 6. Mix thoroughly • 7. Take samples for viscosity and optical density as described above. Note the appearance of the solution during the experiment

[5] = in vivo
[6] = molecular target: GnRH receptors in the pituitary (Homo sapiens, UniProt P30968); settings: prostate cancer patients; literature; cited from earlier work
GnRH receptors in the pituitary, sequence (P30968 whole entry): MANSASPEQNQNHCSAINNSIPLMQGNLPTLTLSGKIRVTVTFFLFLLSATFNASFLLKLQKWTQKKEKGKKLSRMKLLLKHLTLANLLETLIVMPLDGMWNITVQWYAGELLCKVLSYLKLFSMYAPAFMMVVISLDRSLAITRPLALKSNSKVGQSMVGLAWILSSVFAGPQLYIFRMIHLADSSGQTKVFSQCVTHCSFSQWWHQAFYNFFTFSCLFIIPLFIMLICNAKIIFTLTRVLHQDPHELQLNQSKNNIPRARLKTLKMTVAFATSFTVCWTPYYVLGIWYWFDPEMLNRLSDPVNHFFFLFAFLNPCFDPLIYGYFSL

[7] = 5 °C, degarelix 5 mg/ml, AcOH 40%
[8] = 5 °C, degarelix 25 mg/ml, AcOH 13%
[9] = 5 °C, degarelix 25 mg/ml, AcOH 15%
[10] = 5 °C, degarelix 25 mg/ml, AcOH 20%
[11] = 5 °C, degarelix 35 mg/ml, AcOH 26%
[12] = 20 °C, degarelix 15 mg/ml, AcOH 30%
[13] = 25 °C, degarelix 25 mg/ml, AcOH 20%
[14] = 35 °C, degarelix 25 mg/ml, AcOH 15%
[15] = 35 °C, degarelix 25 mg/ml, AcOH 18%
[16] = 35 °C, degarelix 25 mg/ml, AcOH 20%
[17] = 35 °C, degarelix 35 mg/ml, AcOH 22%
[18] = 35 °C, degarelix 35 mg/ml, AcOH 26%
[19] = 35 °C, degarelix 35 mg/ml, AcOH 30%
[20] = 35 °C, degarelix 35 mg/ml, AcOH 35%

Compound: Polysorbate 20 [Tween 20]
- optical density versus control [1]: reduced the optical density to a level below the control
- in-vitro release profiles [2]: not altered

Compound: CC(=O)N[C@H](Cc1ccc2ccccc2c1)C(=O)N[C@H](Cc1ccc(Cl)cc1)C(=O)N[C@H](Cc1cccnc1)C(=O)N[C@@H](CO)C(=O)N[C@@H](Cc1ccc(NC(=O)[C@@H]2CC(=O)NC(=O)N2)cc1)C(=O)N[C@H](Cc1ccc(NC(N)=O)cc1)C(=O)N[C@@H](CC(C)C)C(=O)N[C@@H](CCCCNC(C)C)C(=O)N1CCC[C@H]1C(=O)N[C@H](C)C(N)=O [Degarelix, D-Alaninamide, N-acetyl-3-(2-naphthalenyl)-D-alanyl-4-chloro-D-phenylaanyl-3-(3-pyridinyl)-D-alanyl-L-seryl-4-[[[(4S)-hexahydro-2,6-dioxo-4-pyrimidinyl]carbonyl]amino]-L-phenylalanyl-4-[(aminocarbonyl)amino]-D-phenylaanyl-L-leucyl-N6-(1-methylethyl)-L-lysyl-L-prolyl-] (Ac-[d2Nal][dPhe(4-Cl)][d3Pal]S[Phe(4-NH2)](Dihydroorotyl(S))[dPhe(4-NHCONH2)]L[Lys(iPr)]P[dA]-NH2)
- Viscosity @ 500 Time = 240 min [3, 7]: 1.9 mPas * s
- Viscosity @ 500 Time = 240 min [3, 8]: 2.3 mPas * s
- Viscosity @ 500 Time = 240 min [3, 9]: 1.9 mPas * s
- Viscosity @ 500 Time = 240 min [3, 10]: 1.7 mPas * s
- Viscosity @ 500 Time = 240 min [3, 11]: 1.9 mPas * s
- Viscosity @ 500 Time = 240 min [3, 12]: 1.8 mPas * s
- Viscosity @ 500 Time = 240 min [3, 13]: 2.0 mPas * s
- Viscosity @ 500 Time = 240 min [3, 14]: 7.2 mPas * s
- Viscosity @ 500 Time = 240 min [3, 15]: 2.1 mPas * s
- Viscosity @ 500 Time = 240 min [3, 16]: 1.7 mPas * s
- Viscosity @ 500 Time = 240 min [3, 17]: 2.1 mPas * s
- Viscosity @ 500 Time = 240 min [3, 18]: 1.9 mPas * s
- Viscosity @ 500 Time = 240 min [3, 19]: 2.0 mPas * s
- Viscosity @ 500 Time = 240 min [3, 20]: 2.1 mPas * s
- Optical Density Time = 240 min [4, 7]: 0.00
- Optical Density Time = 240 min [4, 8]: 0.10
- Optical Density Time = 240 min [4, 9]: 0.09
- Optical Density Time = 240 min [4, 10]: 0.06
- Optical Density Time = 240 min [4, 11]: 0.08
- Optical Density Time = 240 min [4, 12]: 0.03
- Optical Density Time = 240 min [4, 13]: 0.10
- Optical Density Time = 240 min [4, 14]: 0.86
- Optical Density Time = 240 min [4, 15]: 0.07
- Optical Density Time = 240 min [4, 16]: 0.05
- Optical Density Time = 240 min [4, 17]: 0.13
- Optical Density Time = 240 min [4, 18]: 0.10
- Optical Density Time = 240 min [4, 19]: 0.07
- Optical Density Time = 240 min [4, 20]: 0.08
- sustained release from the depot [5]: sustained release of the active over months
- testosterone surge or clinical flare [6]: does not cause testosterone surge or clinical flare
